Where two headings read alike, the source gives them in different places.
Columns and labels:
[1] = test system: Pyricularia oryzae Carvara KA301; format: in vivo; conditions: Rice Blast
[2] = test system: Botrytis cinerae; assay: Fungicidal activity against Cucumber Gray Mold Rot (CGM) disease; format: in vivo; conditions: Cucumber Gray Mold Rot
[3] = test system: Phytophthora infestans; format: in vivo; conditions: Tomato Late Blight
[4] = test system: Puccinia recondita; assay: Fungicidal activity against Wheat Leaf Rust (WLR) disease; format: in vivo; conditions: Wheat Leaf Rust
[5] = test system: Erysiphae graminis; assay: Fungicidal activity against Barley Powdery Mildew (BPM) disease; format: in vivo; conditions: Barley Powdery Mildew
[6] = test system: Rhizoctonia solani AG-1; assay: Fungicidal activity against Rice Sheath Blight (RSB) disease; conditions: Rice Sheath Blight

CCCCc1ccc(C=C(F)Oc2cccc(C(C)=NOCc3ccccc3C(=NOC)C(=O)OC)c2)cc1 [Compound 70]
RCV (Fungicidal Activities, C.V.) ([1]; concentration 2 ppm): 99%
RCV (Fungicidal Activities, C.V.) ([1]; concentration 50 ppm): 100%
CGM (Fungicidal Activities, C.V.) ([2]; concentration 50 ppm): 50%
TLB (Fungicidal Activities, C.V.) ([3]; concentration 2 ppm): 12%
TLB (Fungicidal Activities, C.V.) ([3]; concentration 50 ppm): 0%
WLR (Fungicidal Activities, C.V.) ([4]; concentration 2 ppm): 93%
WLR (Fungicidal Activities, C.V.) ([4]; concentration 50 ppm): 97%
BPM (Fungicidal Activities, C.V.) ([5]; concentration 2 ppm): 83%
BPM (Fungicidal Activities, C.V.) ([5]; concentration 50 ppm): 100%
RSB (Fungicidal Activities, C.V.) ([6]; concentration 2 ppm): 20%
RSB (Fungicidal Activities, C.V.) ([6]; concentration 50 ppm): 85%

CON=C(C(=O)OC)c1ccccc1CON=C(C)c1cccc(OC(F)=Cc2cccc(OC)c2)c1 [Compound 71]
RCV (Fungicidal Activities, C.V.) ([1]; concentration 2 ppm): 100%
RCV (Fungicidal Activities, C.V.) ([1]; concentration 50 ppm): 100%
CGM (Fungicidal Activities, C.V.) ([2]; concentration 50 ppm): 25%
TLB (Fungicidal Activities, C.V.) ([3]; concentration 2 ppm): 25%
TLB (Fungicidal Activities, C.V.) ([3]; concentration 50 ppm): 50%
WLR (Fungicidal Activities, C.V.) ([4]; concentration 2 ppm): 98%
WLR (Fungicidal Activities, C.V.) ([4]; concentration 50 ppm): 100%
BPM (Fungicidal Activities, C.V.) ([5]; concentration 2 ppm): 100%
BPM (Fungicidal Activities, C.V.) ([5]; concentration 50 ppm): 100%
RSB (Fungicidal Activities, C.V.) ([6]; concentration 2 ppm): 35%
RSB (Fungicidal Activities, C.V.) ([6]; concentration 50 ppm): 100%

CON=C(C(=O)OC)c1ccccc1CON=C(C)c1cccc(OC(F)=Cc2ccc(OC)cc2)c1 [Compound 72]
RCV (Fungicidal Activities, C.V.) ([1]; concentration 2 ppm): 100%
RCV (Fungicidal Activities, C.V.) ([1]; concentration 50 ppm): 98%
CGM (Fungicidal Activities, C.V.) ([2]; concentration 50 ppm): 0%
TLB (Fungicidal Activities, C.V.) ([3]; concentration 2 ppm): 0%
TLB (Fungicidal Activities, C.V.) ([3]; concentration 50 ppm): 66%
WLR (Fungicidal Activities, C.V.) ([4]; concentration 2 ppm): 98%
WLR (Fungicidal Activities, C.V.) ([4]; concentration 50 ppm): 100%
BPM (Fungicidal Activities, C.V.) ([5]; concentration 2 ppm): 100%
BPM (Fungicidal Activities, C.V.) ([5]; concentration 50 ppm): 100%
RSB (Fungicidal Activities, C.V.) ([6]; concentration 2 ppm): 25%
RSB (Fungicidal Activities, C.V.) ([6]; concentration 50 ppm): 65%

CCOc1ccc(C=C(F)Oc2cccc(C(C)=NOCc3ccccc3C(=NOC)C(=O)OC)c2)cc1 [Compound 73]
RCV (Fungicidal Activities, C.V.) ([1]; concentration 2 ppm): 100%
RCV (Fungicidal Activities, C.V.) ([1]; concentration 50 ppm): 95%
CGM (Fungicidal Activities, C.V.) ([2]; concentration 50 ppm): 0%
TLB (Fungicidal Activities, C.V.) ([3]; concentration 2 ppm): 0%
TLB (Fungicidal Activities, C.V.) ([3]; concentration 50 ppm): 60%
WLR (Fungicidal Activities, C.V.) ([4]; concentration 2 ppm): 98%
WLR (Fungicidal Activities, C.V.) ([4]; concentration 50 ppm): 100%
BPM (Fungicidal Activities, C.V.) ([5]; concentration 2 ppm): 100%
BPM (Fungicidal Activities, C.V.) ([5]; concentration 50 ppm): 100%
RSB (Fungicidal Activities, C.V.) ([6]; concentration 2 ppm): 25%
RSB (Fungicidal Activities, C.V.) ([6]; concentration 50 ppm): 100%

CON=C(C(=O)OC)c1ccccc1CON=C(C)c1cccc(OC(F)=Cc2ccc(F)cc2)c1 [Compound 74]
RCV (Fungicidal Activities, C.V.) ([1]; concentration 2 ppm): 100%
RCV (Fungicidal Activities, C.V.) ([1]; concentration 50 ppm): 100%
CGM (Fungicidal Activities, C.V.) ([2]; concentration 50 ppm): 72%
TLB (Fungicidal Activities, C.V.) ([3]; concentration 2 ppm): 12%
TLB (Fungicidal Activities, C.V.) ([3]; concentration 50 ppm): 56%
WLR (Fungicidal Activities, C.V.) ([4]; concentration 2 ppm): 99%
WLR (Fungicidal Activities, C.V.) ([4]; concentration 50 ppm): 100%
BPM (Fungicidal Activities, C.V.) ([5]; concentration 2 ppm): 100%
BPM (Fungicidal Activities, C.V.) ([5]; concentration 50 ppm): 100%
RSB (Fungicidal Activities, C.V.) ([6]; concentration 2 ppm): 25%
RSB (Fungicidal Activities, C.V.) ([6]; concentration 50 ppm): 100%

CON=C(C(=O)OC)c1ccccc1CON=C(C)c1cccc(OC(F)=Cc2cccc(Cl)c2)c1 [Compound 75]
RCV (Fungicidal Activities, C.V.) ([1]; concentration 2 ppm): 100%
RCV (Fungicidal Activities, C.V.) ([1]; concentration 50 ppm): 100%
CGM (Fungicidal Activities, C.V.) ([2]; concentration 50 ppm): 0%
TLB (Fungicidal Activities, C.V.) ([3]; concentration 2 ppm): 0%
TLB (Fungicidal Activities, C.V.) ([3]; concentration 50 ppm): 66%
WLR (Fungicidal Activities, C.V.) ([4]; concentration 2 ppm): 98%
WLR (Fungicidal Activities, C.V.) ([4]; concentration 50 ppm): 100%
BPM (Fungicidal Activities, C.V.) ([5]; concentration 2 ppm): 100%
BPM (Fungicidal Activities, C.V.) ([5]; concentration 50 ppm): 100%
RSB (Fungicidal Activities, C.V.) ([6]; concentration 2 ppm): 25%
RSB (Fungicidal Activities, C.V.) ([6]; concentration 50 ppm): 100%

CON=C(C(=O)OC)c1ccccc1CON=C(C)c1cccc(OC(F)=Cc2ccc(Cl)cc2)c1 [Compound 76]
RCV (Fungicidal Activities, C.V.) ([1]; concentration 2 ppm): 100%
RCV (Fungicidal Activities, C.V.) ([1]; concentration 50 ppm): 100%
CGM (Fungicidal Activities, C.V.) ([2]; concentration 50 ppm): 62%
TLB (Fungicidal Activities, C.V.) ([3]; concentration 2 ppm): 0%
TLB (Fungicidal Activities, C.V.) ([3]; concentration 50 ppm): 0%
WLR (Fungicidal Activities, C.V.) ([4]; concentration 2 ppm): 100%
WLR (Fungicidal Activities, C.V.) ([4]; concentration 50 ppm): 100%
BPM (Fungicidal Activities, C.V.) ([5]; concentration 2 ppm): 100%
BPM (Fungicidal Activities, C.V.) ([5]; concentration 50 ppm): 100%
RSB (Fungicidal Activities, C.V.) ([6]; concentration 2 ppm): 35%
RSB (Fungicidal Activities, C.V.) ([6]; concentration 50 ppm): 100%

CNC(=O)/C(=N/OC)c1ccccc1CON=C(C)c1cccc(OC(F)=Cc2ccccc2)c1 [Compound 77]
RCV (Fungicidal Activities, C.V.) ([1]; concentration 2 ppm): 100%
RCV (Fungicidal Activities, C.V.) ([1]; concentration 10 ppm): 100%
RCV (Fungicidal Activities, C.V.) ([1]; concentration 50 ppm): 100%
CGM (Fungicidal Activities, C.V.) ([2]; concentration 2 ppm): 21%
CGM (Fungicidal Activities, C.V.) ([2]; concentration 10 ppm): 36%
CGM (Fungicidal Activities, C.V.) ([2]; concentration 50 ppm): 85%
TLB (Fungicidal Activities, C.V.) ([3]; concentration 2 ppm): 50%
TLB (Fungicidal Activities, C.V.) ([3]; concentration 10 ppm): 88%
TLB (Fungicidal Activities, C.V.) ([3]; concentration 50 ppm): 80%
WLR (Fungicidal Activities, C.V.) ([4]; concentration 2 ppm): 100%
WLR (Fungicidal Activities, C.V.) ([4]; concentration 10 ppm): 100%
WLR (Fungicidal Activities, C.V.) ([4]; concentration 50 ppm): 100%
BPM (Fungicidal Activities, C.V.) ([5]; concentration 2 ppm): 100%
BPM (Fungicidal Activities, C.V.) ([5]; concentration 10 ppm): 100%
BPM (Fungicidal Activities, C.V.) ([5]; concentration 50 ppm): 100%
RSB (Fungicidal Activities, C.V.) ([6]; concentration 2 ppm): 40%
RSB (Fungicidal Activities, C.V.) ([6]; concentration 10 ppm): 57%
RSB (Fungicidal Activities, C.V.) ([6]; concentration 50 ppm): 100%

CNC(=O)C(=NOC)c1ccccc1CON=C(C)c1cccc(OC(F)=Cc2cccc(C)c2)c1 [Compound 78]
RCV (Fungicidal Activities, C.V.) ([1]; concentration 2 ppm): 100%
RCV (Fungicidal Activities, C.V.) ([1]; concentration 50 ppm): 100%
CGM (Fungicidal Activities, C.V.) ([2]; concentration 50 ppm): 82%
TLB (Fungicidal Activities, C.V.) ([3]; concentration 2 ppm): 50%
TLB (Fungicidal Activities, C.V.) ([3]; concentration 50 ppm): 94%
WLR (Fungicidal Activities, C.V.) ([4]; concentration 2 ppm): 100%
WLR (Fungicidal Activities, C.V.) ([4]; concentration 50 ppm): 100%
BPM (Fungicidal Activities, C.V.) ([5]; concentration 2 ppm): 100%
BPM (Fungicidal Activities, C.V.) ([5]; concentration 50 ppm): 100%
RSB (Fungicidal Activities, C.V.) ([6]; concentration 2 ppm): 45%
RSB (Fungicidal Activities, C.V.) ([6]; concentration 50 ppm): 90%

CCc1ccc(C=C(F)Oc2cccc(C(C)=NOCc3ccccc3C(=NOC)C(=O)NC)c2)cc1 [Compound 79]
RCV (Fungicidal Activities, C.V.) ([1]; concentration 2 ppm): 99%
RCV (Fungicidal Activities, C.V.) ([1]; concentration 50 ppm): 100%
CGM (Fungicidal Activities, C.V.) ([2]; concentration 50 ppm): 80%
TLB (Fungicidal Activities, C.V.) ([3]; concentration 2 ppm): 43%
TLB (Fungicidal Activities, C.V.) ([3]; concentration 50 ppm): 82%
WLR (Fungicidal Activities, C.V.) ([4]; concentration 2 ppm): 98%
WLR (Fungicidal Activities, C.V.) ([4]; concentration 50 ppm): 100%
BPM (Fungicidal Activities, C.V.) ([5]; concentration 2 ppm): 100%
BPM (Fungicidal Activities, C.V.) ([5]; concentration 50 ppm): 100%
RSB (Fungicidal Activities, C.V.) ([6]; concentration 2 ppm): 35%
RSB (Fungicidal Activities, C.V.) ([6]; concentration 50 ppm): 65%

CNC(=O)C(=NOC)c1ccccc1CON=C(C)c1cccc(OC(F)=Cc2cccc(OC)c2)c1 [Compound 80]
RCV (Fungicidal Activities, C.V.) ([1]; concentration 2 ppm): 100%
RCV (Fungicidal Activities, C.V.) ([1]; concentration 50 ppm): 100%
CGM (Fungicidal Activities, C.V.) ([2]; concentration 50 ppm): 77%
TLB (Fungicidal Activities, C.V.) ([3]; concentration 2 ppm): 12%
TLB (Fungicidal Activities, C.V.) ([3]; concentration 50 ppm): 72%
WLR (Fungicidal Activities, C.V.) ([4]; concentration 2 ppm): 96%
WLR (Fungicidal Activities, C.V.) ([4]; concentration 50 ppm): 100%
BPM (Fungicidal Activities, C.V.) ([5]; concentration 2 ppm): 100%
BPM (Fungicidal Activities, C.V.) ([5]; concentration 50 ppm): 100%
RSB (Fungicidal Activities, C.V.) ([6]; concentration 2 ppm): 45%
RSB (Fungicidal Activities, C.V.) ([6]; concentration 50 ppm): 100%

CCOc1ccc(C=C(F)Oc2cccc(C(C)=NOCc3ccccc3C(=NOC)C(=O)NC)c2)cc1 [Compound 81]
RCV (Fungicidal Activities, C.V.) ([1]; concentration 2 ppm): 100%
RCV (Fungicidal Activities, C.V.) ([1]; concentration 50 ppm): 100%
CGM (Fungicidal Activities, C.V.) ([2]; concentration 50 ppm): 83%
TLB (Fungicidal Activities, C.V.) ([3]; concentration 2 ppm): 12%
TLB (Fungicidal Activities, C.V.) ([3]; concentration 50 ppm): 64%
WLR (Fungicidal Activities, C.V.) ([4]; concentration 2 ppm): 99%
WLR (Fungicidal Activities, C.V.) ([4]; concentration 50 ppm): 100%
BPM (Fungicidal Activities, C.V.) ([5]; concentration 2 ppm): 100%
BPM (Fungicidal Activities, C.V.) ([5]; concentration 50 ppm): 100%
RSB (Fungicidal Activities, C.V.) ([6]; concentration 2 ppm): 30%
RSB (Fungicidal Activities, C.V.) ([6]; concentration 50 ppm): 100%

CNC(=O)C(=NOC)c1ccccc1CON=C(C)c1cccc(OC(F)=Cc2ccc(F)cc2)c1 [Compound 82]
RCV (Fungicidal Activities, C.V.) ([1]; concentration 2 ppm): 100%
RCV (Fungicidal Activities, C.V.) ([1]; concentration 50 ppm): 96%
CGM (Fungicidal Activities, C.V.) ([2]; concentration 50 ppm): 82%
TLB (Fungicidal Activities, C.V.) ([3]; concentration 2 ppm): 85%
TLB (Fungicidal Activities, C.V.) ([3]; concentration 50 ppm): 84%
WLR (Fungicidal Activities, C.V.) ([4]; concentration 2 ppm): 100%
WLR (Fungicidal Activities, C.V.) ([4]; concentration 50 ppm): 100%
BPM (Fungicidal Activities, C.V.) ([5]; concentration 2 ppm): 100%
BPM (Fungicidal Activities, C.V.) ([5]; concentration 50 ppm): 100%
RSB (Fungicidal Activities, C.V.) ([6]; concentration 2 ppm): 55%
RSB (Fungicidal Activities, C.V.) ([6]; concentration 50 ppm): 85%

Source: patent US6552080B1, “Fungicidal compounds having a fluorovinyl-or fluoropropenyl-oxyphenyloxime moiety and process for the preparation thereof” (Korea Research Institute of Chemical Technology, priority 1999, dated 2003)
